{
  "source": "patent US20210322324A1",
  "about": "“METHOD FOR TREATING PRIMARY SCLEROSING CHOLANGITIS” (AVOLYNT, priority 2018, published 2021)",
  "key": {"[1]": {"assay": "Plasma remogliflozin after oral compressed IR tablet of remogliflozin etabonate", "type": "in vivo", "conditions": "350 mg remogliflozin etabonate, after 3 hrs", "description": "Oral dosage forms according to the invention are typically tablets or capsules. Tablets can be obtained by direct compression of the mixed components of a dosage form, including an effective dosage amount of remogliflozin etabonate, and selected excipients, like cellulose derivatives, metacrylates, chitosan, carboxymethylstarch (CMS), or mixtures thereof. For example, a compressed tablet according to the invention, can be prepared by granulating remogliflozin etabonate, microcrystalline cellulose and croscarmellose sodium with a water and povidone solution. The resulting granules are dried, milled, and then blended with mannitol, microcrystalline cellulose, and croscarmellose. The blend is lubricated with magnesium stearate and compressed. […] Indeed, Tmax for an IR remogliflozin etabonate oral dosage form according to the invention occurs at 1 hour, or less, following ingestion of the dosage form by a subject."}, "[2]": {"system": "TIA mice", "assay": "TIA mouse model of primary sclerosing cholangitis, liver histology after remogliflozin etabonate-formulated diet", "type": "in vivo", "description": "The following Examples describe the utilization of a murine model of […] (“PSC”) to assess the effectiveness of a treatment regimen based on the oral administration of remogliflozin etabonate. The murine PSC model is based on mice that are deficient for the expression of tumor necrosis factor alpha (“TNFα”), interleukin 10 (“IL-10”), and activation-induced cytidine deaminase (“AICDA”). As the mice are deficient in TNF, IL-10, and AICDA, they are referred to, herein, as “TIA” mice.\nMoreover, as AICDA is required for immunoglobulin (“Ig”) class switching, TIA mice lack IgG and IgA, a phenotype analogous to humans with hyper-IgM syndrome. Therefore, with the combination of AICDA deficiency with the risk factors associated with TNFα and IL-10 deficiencies, TIA mice also develop liver and biliary inflammation reminiscent of PSC symptoms in humans. Accordingly, the TIA model is useful for investigating mechanisms that act early in PSC pathogenesis, as well as treatments that can prevent progression to PSC.\nExample 1. Orally-administered remogliflozin etabonate reduces inflammatory cell infiltration, bile ductular proliferation, and interface hepatitis in TIA mice. TIA mice were created by first breeding TNFα knock out (“KO”) C57BL/6 mice, (strain B6.129S-Tnf^tm1Gkl/J, stock #005540, Jackson Laboratories, Bar Harbor, Me.) with IL-10 KO mice (strain B10.129P2(B6)-IL10^tm1Cgn/J, Stock No. 002251, Jackson Laboratories) to produce a population of mice that were deficient in TNFα and IL-10. Because mice with a TNFα−/− and IL10−/− genotype spontaneously develop inflammatory bowel disease (“IBD”) (Hale 2012), a condition associated with poor breeding success (Nagy 2016), the mice needed for further breeding to generate an AICDA population, were generated by breeding offspring with a TNFα and IL10+/− genotype with AICDA−/− mice, which were obtained from Dr. Tasuku Honjo (Muramatsu 2000)), to produce a population of TNFα−/−, IL10−/−, and AICDA+/−(“TI-hetA”) males and females. In turn, TI-hetA pairs were bred to generate populations that were 25% TIA mice, and 50% non-colitis-susceptible TI-hetA littermates that could be used as control populations. All populations were exposed to the same environment from birth. The mice were housed in polycarbonate micro-isolator cages, in individually ventilated racks, under barrier conditions that excluded all known pathogens, including Helicobacter pylori and Norovirus. Mice had ad libitum access to water, and to a standard diet (PicoLab Mouse Diet 20/5058, LabDiet, St. Louis, Mo., USA).\nAt four (4) weeks of age, TIA (40) and TI-hetA (22) mice were randomized into experimental groups that received either a standard diet (20 TIA and 12 het), or a standard diet formulated 0.03% remogliflozin etabonate (20 TIA and 10 het) (Avolynt Inc., USA). The mice were maintained on this diet for seven (7) weeks. Body weights were obtained three (3) times, weekly, to assess the general health of mice, and to track the development of inflammatory bowel disease (IBD). Glycosuria in the experimental groups was assessed by applying freshly voided urine directly to the glucose test patch on an Accutest® URS-10 urinary reagent test strips (Jant Pharmaceutical Corp., Encino, Calif., USA). Mice were humanely euthanized before reaching the experimental endpoint, of eleven (11) weeks of age, if they lost >15% body weight, or developed rectal prolapse.\nTo characterize biliary lesions in TIA mice at the end of the 7 week treatment period, liver tissue was obtained from the remogliflozin-treated, and untreated groups, for histologic examination. The excised liver tissue was fixed in Carnoy's fixative solution, and processed into paraffin blocks. The paraffin blocks were sectioned, and stained with Hematoxylin and eosin (H&E) for pathologic analysis. The H&E-stained sections were scored by an American Board of Pathology-certified pathologist. […]"}, "[3]": {"conditions": "TIA mice, 0.03% in diet for 7 weeks, vs untreated TIA mice, 11 weeks"}},
  "note": "Entries after “also recorded” stand apart in the source; their conditions may differ.",
  "data": [
    {"smiles": "CCOC(=O)OC[C@H]1O[C@@H](Oc2nn(C(C)C)c(C)c2Cc2ccc(OC(C)C)cc2)[C@H](O)[C@@H](O)[C@@H]1O", "note": "[remogliflozin etabonate, 5-methyl-4-[4-(1-methylethoxy)benzyl]-1-(1-methylethyl)-1H-pyrazol-3-yl 6-O-(ethoxycarbonyl)-β-D-glucopyranoside]", "values": [
      {"measurement": "remogliflozin plasma concentration after clearance", "setting": "[1]", "result": 40, "unit": "ng/mL"},
      {"measurement": "inflammation at the interface between the hepatic parenchyma and the portal tracts (interface hepatitis)", "setting": "[2]; [3]", "result": "reduces; also recorded: less inflammation at the interface between the hepatic parenchyma and the portal tracts"},
      {"measurement": "proliferation of bile ductules (bile ductular proliferation)", "setting": "[2]; [3]", "result": "reduces; also recorded: less proliferation of bile ductiles"},
      {"measurement": "proliferation of bile ductules (bile ductular proliferation)", "setting": "[2]; TIA mice, 0.03% in diet for 7 weeks, vs untreated TIA mice, 11 weeks, listed as Remo", "result": "decrease in proliferation of bile ductules"},
      {"measurement": "development and progression of liver and biliary disease", "setting": "[2]; TIA mice, 0.03% remogliflozin etabonate in diet for 7 weeks from 4 weeks of age, vs standard diet, H&E liver sections at 11 weeks", "result": "markedly less development and progression of liver and biliary disease"},
      {"measurement": "number of TIA mice that required early euthanasia, Remo group versus control group", "setting": "[2]; TIA mice, 7-week study, euthanasia on >15% body weight loss or rectal prolapse", "result": "no statistical difference"},
      {"measurement": "inflammatory cell infiltration", "setting": "[2]; TIA mice, orally administered in diet", "result": "reduces"},
      {"measurement": "periportal and biliary inflammation", "setting": "[2]; TIA mouse at 11 weeks, 0.03% Remo in chow from 4 weeks of age, H&E liver section", "result": "decrease in periportal and biliary inflammation"}
    ]}
  ]
}
